Target: T1, KRAS G12C 1-169, his-tagged protein, GDP-loaded (Homo sapiens, UniProt P01116, G12C)
T1 construct: KRAS G12C 1-169, his-tagged protein, GDP-loaded
Assay: Covalent binding (% modification) to KRAS G12C by mass spectrometry; note: test concentration or dose not given here

[1] = covalent binding to KRAS G12C after a ten minute incubation period
[2] = covalent binding to KRAS G12C after a three minute incubation period

| SMILES | Binding % [1] | Binding % [2] |
| --- | --- | --- |
| C=CC(=O)N1[C@H](C)CN(c2nc(N3CC(N(C)C)C3)nc3c(F)c(-c4c(O)cccc4F)c(Cl)cc23)C[C@@H]1C [Compound 68, 1-((2R,6S)-4-((R)-6-chloro-2-(3-(dimethylamino)azetidin-1-yl)-8-fluoro-7-(2-fluoro-6-hydroxyphenyl)quinazolin-4-yl)-2,6-dimethyl-piperazin-1-yl) prop-2-en-1-one] | +++ (+++ indicates binding activity greater than 90%) |  |
| C=CC(=O)N1C[C@H](C)N(c2nc(OCCCN3CCC(F)(F)C3)nc3c(F)c(-c4c(O)cccc4F)c(Cl)cc23)C[C@H]1C [Compound 230, 1-((2R,5S)-4-(6-chloro-2-(3-(3,3-difluoropyrrolidin-1-yl)propoxy)-8-fluoro-7-(2-fluoro-6-hydroxyphenyl)quinazolin-4-yl)-2,5-dimethyl-piperazin-1-yl) prop-2-en-1-one] |  | ++ (++ indicates binding activity from 50 to 90%) |
| C=CC(=O)N1C[C@@H](C)N(c2nc(N3CC(N(C)C)C3)nc3c(F)c(-c4c(O)cccc4F)c(Cl)cc23)C[C@@H]1C [Compound 81, 1-((2S,5R)-4-(6-chloro-2-(3-(dimethylamino)azetidin-1-yl)-8-fluoro-7-(2-fluoro-6-hydroxyphenyl)quinazolin-4-yl)-2,5-dimethyl-piperazin-1-yl) prop-2-en-1-one] | + (+ indicates binding activity up to 50%) |  |
| C=CC(=O)N1C[C@H](C)N(c2nc(N3CC(N(C)C)C3)nc3c(F)c(-c4c(C)ccc5[nH]ncc45)c(Cl)cc23)C[C@H]1C (atropisomer, axis not shown) [Compound 130, 1-((2R,5S)-4-(6-chloro-2-(3-(dimethylamino)azetidin-1-yl)-8-fluoro-7-((R)-5-methyl-1H-indazol-4-yl)quinazolin-4-yl)-2,5-dimethyl-piperazin-1-yl) prop-2-en-1-one] |  | +++ (+++ indicates binding activity greater than 90%) |
| C=CC(=O)N1C[C@H](C)N(c2nc(N3CC(NC)C3)nc3c(F)c(-c4c(C)ccc5cn[nH]c45)c(Cl)cc23)C[C@H]1C (atropisomer, axis not shown) [Compound 109, 1-((2R,5S)-4-(6-chloro-8-fluoro-7-((S)-6-methyl-1H-indazol-7-yl)-2-(3-(methylamino)azetidin-1-yl)quinazolin-4-yl)-2,5-dimethyl-piperazin-1-yl) prop-2-en-1-one] |  | + (+ indicates binding activity greater than 0% and up to 50%) |
| C=CC(=O)N1C(C)CN(c2nc(N)nc3c(F)c(-c4c(O)cccc4F)c(Cl)cc23)CC1C (stereo not shown) [Compound 2, 1-(4-(2-amino-6-chloro-8-fluoro-7-(2-fluoro-6-hydroxyphenyl)quinazolin-4-yl)-2,6-dimethyl-piperazin-1-yl) prop-2-en-1-one] | ++ (++ indicates binding activity from 50 to 90%) |  |
| C=CC(=O)N1CCN(c2nc(N)nc3c(F)c(-c4c(O)cccc4F)c(Cl)cc23)[C@@H](C)C1 [Compound 4, 1-((3S)-4-(2-amino-6-chloro-8-fluoro-7-(2-fluoro-6-hydroxyphenyl)quinazolin-4-yl)-3-methylpiperazin-1-yl)prop-2-en-1-one] | ++ (++ indicates binding activity from 50 to 90%) |  |
| C=CC(=O)N1CCN(c2nc(N3CC(N(C)C)C3)nc3c(F)c(-c4c(O)cccc4F)c(Cl)cc23)C[C@@H]1C [Compound 82, 1-((2S)-4-(6-chloro-2-(3-(dimethylamino)azetidin-1-yl)-8-fluoro-7-(2-fluoro-6-hydroxyphenyl)quinazolin-4-yl)-2-methyl-piperazin-1-yl) prop-2-en-1-one] | ++ (++ indicates binding activity from 50 to 90%) |  |
| C=CC(=O)N1[C@H](C)CN(c2nc(N)nc3c(F)c(-c4c(C)ccc5cn[nH]c45)c(Cl)cc23)C[C@@H]1C [Compound 15, 1-((2S,6R)-4-(2-amino-6-chloro-8-fluoro-7-(6-methyl-1H-indazol-7-yl)quinazolin-4-yl)-2,6-dimethyl-piperazin-1-yl) prop-2-en-1-one] | ++ (++ indicates binding activity from 50 to 90%) |  |
| C=CC(=O)N1CCN(c2nc(N3CC(N(CC)CC)C3)nc3c(F)c(-c4c(O)cccc4F)c(Cl)cc23)C[C@H]1C [Compound 164, 1-((2R)-4-(6-chloro-2-(3-(diethylamino)azetidin-1-yl)-8-fluoro-7-(2-fluoro-6-hydroxyphenyl)quinazolin-4-yl)-2-methyl-piperazin-1-yl) prop-2-en-1-one] |  | ++ (++ indicates binding activity from 50 to 90%) |
| C=CC(=O)N1C[C@H](C)N(c2nc(OCCCN(C)C)nc3c(F)c(-c4c(O)cccc4F)c(C(F)(F)F)cc23)C[C@H]1C [Compound 218, 1-((2R,5S)-4-(2-(3-(dimethylamino)propoxy)-8-fluoro-7-(2-fluoro-6-hydroxyphenyl)-6-(trifluoromethyl)quinazolin-4-yl)-2,5-dimethyl-piperazin-1-yl) prop-2-en-1-one] |  | +++ (+++ indicates binding activity greater than 90%) |
| C=CC(=O)N1[C@H](C)CN(c2nc(NC3CCN(C4CC4)CC3)nc3c(F)c(-c4c(C)ccc5[nH]ncc45)c(Cl)cc23)C[C@@H]1C [Compound 33, 1-((2R,6S)-4-(6-chloro-2-((1-cyclopropyl-piperidin-4-yl)amino)-8-fluoro-7-(5-methyl-1H-indazol-4-yl)quinazolin-4-yl)-2,6-dimethyl-piperazin-1-yl) prop-2-en-1-one] | ++ (++ indicates binding activity from 50 to 90%) |  |
| C=CC(=O)N1C[C@@H](C)N(c2nc(NC3CCN(C4CC4)CC3)nc3c(F)c(-c4c(C)ccc5cn[nH]c45)c(Cl)cc23)[C@@H](C)C1 [Compound 43, 1-((3S,5R)-4-(6-chloro-2-((1-cyclopropyl-piperidin-4-yl)amino)-8-fluoro-7-(6-methyl-1H-indazol-7-yl)quinazolin-4-yl)-3,5-dimethyl-piperazin-1-yl) prop-2-en-1-one] | ++ (++ indicates binding activity from 50 to 90%) |  |
| C=CC(=O)N1C[C@H](C)N(c2nc(O)nc3c(F)c(-c4c(O)cccc4F)c(Cl)cc23)C[C@H]1C [Compound 51, 1-((2R,5S)-4-(6-chloro-8-fluoro-7-(2-fluoro-6-hydroxyphenyl)-2-hydroxy-quinazolin-4-yl)-2,5-dimethyl-piperazin-1-yl) prop-2-en-1-one] | + (+ indicates binding activity up to 50%) |  |
| C=CC(=O)N1C[C@H](C)N(c2nc(OCCN3CCC(F)(F)C3)nc3c(F)c(-c4cc(O)cc5ccccc45)c(Cl)cc23)C[C@H]1C [Compound 201, 1-((2R,5S)-4-(6-chloro-2-(2-(3,3-difluoropyrrolidin-1-yl)ethoxy)-8-fluoro-7-(3-hydroxynaphthalen-1-yl)quinazolin-4-yl)-2,5-dimethyl-piperazin-1-yl) prop-2-en-1-one] |  | ++ (++ indicates binding activity from 50 to 90%) |
| C=CC(=O)N1CCN(c2nc(N)nc3c(F)c(-c4c(C)ccc5cn[nH]c45)c(Cl)cc23)[C@@H](C)C1 [Compound 5, 1-((3S)-4-(2-amino-6-chloro-8-fluoro-7-(6-methyl-1H-indazol-7-yl)quinazolin-4-yl)-3-methylpiperazin-1-yl)prop-2-en-1-one] | ++ (++ indicates binding activity from 50 to 90%) |  |

From US10646488B2 (Araxes Pharma LLC, priority 2016, dated 2020)
